Measurements as given in publication PMC8150775, “Repositioning Azelnidipine as a Dual Inhibitor Targeting CD47/SIRPα and TIGIT/PVR Pathways for Cancer Immuno-Therapy” (Biomolecules, 2021).

Tested on: CT26 cells
Test: Phagocytosis assay, BMDM co-cultured with CFSE-labeled CT26 cells
Assay type: cell-based, mouse
Conditions: 20 μM, 4 h
Protocol: Bone marrow-derived macrophage (BMDM) cells were isolated from C57BL/6 or BALB/c mice and induced with 20 ng/mL of GM-CSF (Peprotech, Rocky Hill, CT, USA) for 7 days. Meanwhile, the medium was replaced with fresh medium containing the cytokine and the adherent cells were harvested. Phagocytosis assays were performed by a co-culture of the BMDM macrophages with carboxyfluorescein succinimidyl ester-labeled (CFSE^+) or GFP^+ tumor cells at a ratio of 1:4 in a serum-free medium at 37 °C for 4 h, in low-attachment 96-well tissue culture plates (Corning, New York, NY, USA). The cells were harvested and the macrophages were identified by a flow cytometry using anti-F4/80 antibody (eBioscience, San Diego, CA, USA). Then, 7-AAD (eBioscience) was used to exclude the dead cells. The effects of azelnidipine (20 μM) on phagocytosis by BMDM cells were tested, and the anti-CD47 antibody (clone: miap301) were used as the positive control. Phagocytosis rate was determined with the formulation: F4/80^+GFP^+ or F4/80^+CFSE^+ cells/ Total F4/80^+ cells.
Figure 4 Azelnidipine enhances macrophage mediated phagocytosis of the tumor cells. The effects of the azelnidipine on the phagocytosis of the macrophages were tested by a co-culture of the tumor cells and BMDM cell derived from C57BL/6 or BALB/c mice. […] GFP^+ or CFSE^+ BMDMs were detected by a flow cytometry. […]

CC1=C(C(=O)OC(C)C)C(c2cccc([N+](=O)[O-])c2)C(C(=O)OC2CN(C(c3ccccc3)c3ccccc3)C2)=C(N)N1 (stereo not shown) [Azelnidipine]
phagocytosis of CT26 cells by BMDM cells: significantly enhance
